Measured values as given in article PMC12150326 (The Journal of Organic Chemistry, 2025).
Read-outs that look alike come from different tables or passages of the source.

Tests used:
[1] = target: colchicine site of bovine brain tubulin; format: binding; details: for Kd: tubulin binding constant, 25 °C
Experimental: Inhibition of this fluorescence increase was measured and converted to K d for the test compound as described.

[2] = test system: OVCAR-5; format: cell-based, human; details: for GI50: Homo sapiens
Method in brief: (§1)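 Five-dose testing in the National Cancer Institute cell screen covered 100 μM to 0.01 μM.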

[3] = test system: SF-268; format: cell-based, human
Method in brief: (§2)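 Screening via NCI-60, five log concentrations from 0.01 to 100 μM; TGI compared by COMPARE with reference tubulin agents.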

[4] = test system: DU-145; format: cell-based, human
Method in brief: as §2

[5] = test system: MOLT-4; format: cell-based, human; details: for GI50: Homo sapiens
Method in brief: as §1

[6] = test system: RPMI-8226; format: cell-based, human; details: for GI50: Homo sapiens
Method in brief: as §1

[7] = test system: SK-MEL-28; format: cell-based, human
Method in brief: as §1

[8] = test system: KM12; format: cell-based, human; details: for Log10GI50 / Log10LC50 / Log10TGI: KM12
Method in brief: as §2

[9] = test system: NCI-H226; format: cell-based, human; details: for GI50: Homo sapiens
Method in brief: as §1

[10] = test system: IGROV1; format: cell-based, human; details: for GI50: Homo sapiens, IGROV-1
Method in brief: as §1

[11] = test system: A549; assay: Cell-growth inhibition (CellTiter); format: cell-based, human; details: A549, 3 days, read-out: Cell Growth Inhibition GI50 ± SE
Experimental: (§3) Inhibition of cell growth was determined by using standard procedures. Cell lines were obtained from the NCI anticancer drug screen and maintained in DMEM medium supplemented with 10% fetal bovine serum. Growing cells were exposed to serial dilutions of each compound for 3 days. Cell growth was determined with CellTiter Assay Reagent (Promega), and growth parameters, including inhibition of growth, were measured by using the methods specified by the manufacturer.

[12] = test system: PC3; assay: Cell-growth inhibition (CellTiter); format: cell-based, human; details: PC3, 3 days, read-out: Cell Growth Inhibition GI50 ± SE
Experimental: as §3

[13] = test system: M14; assay: Cell-growth inhibition (CellTiter); format: cell-based, human; details: M14, 3 days, read-out: Cell Growth Inhibition GI50 ± SE
Experimental: as §3

`COc1cc(C)c(-c2ccc(OC)c(=O)cc2C)c(OC)c1OC` (single isomer, unassigned) [(aS)-6] showed a Kd ([1]; read-out: Kd) of 230 µM, a Log10GI50 [2] of over -4.00 Molar and a Log10LC50 [2] of over -4.00 Molar. It also gave a Log10TGI [2] of over -4.00 Molar, a Log10GI50 [3] of over -4.00 Molar and a Log10LC50 [3] of over -4.00 Molar. For the same molecule, the Log10TGI [3] was over -4.00 Molar, the Log10GI50 [4] was over -4.00 Molar and the Log10LC50 [4] was over -4.00 Molar. The Log10TGI [4] was over -4.00 Molar, the Log10GI50 [5] was over -4.00 Molar and the Log10LC50 [5] was over -4.00 Molar. For the same molecule, the Log10TGI [5] was over -4.00 Molar, the Log10GI50 [6] was over -4.00 Molar and the Log10LC50 [6] was over -4.00 Molar. The Log10TGI [6] was over -4.00 Molar, the Log10GI50 [7] was over -4.00 Molar and the Log10LC50 [7] was over -4.00 Molar. It also gave a Log10TGI [7] of over -4.00 Molar, a Log10GI50 [8] of over -4.00 Molar and a Log10LC50 [8] of over -4.00 Molar. The Log10TGI [8] was over -4.00 Molar, the Log10GI50 [9] was over -4.00 Molar and the Log10LC50 [9] was over -4.00 Molar. For the same molecule, the Log10TGI [9] was over -4.00 Molar, the Log10GI50 [10] was over -4.00 Molar and the Log10LC50 [10] was over -4.00 Molar. The Log10TGI [10] was over -4.00 Molar, the GI50 [11] was over 20 µM and the GI50 [12] was over 20 µM. For the same molecule, the GI50 [13] was over 20 µM.

For `COc1cc(C)c(-c2ccc(=O)c(OC)cc2C)c(OC)c1OC` (single isomer, unassigned) [(aR)-iso-6], the Kd [1] was “nb”, the Log10GI50 [2] was over -4.00 Molar and the Log10LC50 [2] was over -4.00 Molar. The Log10TGI [2] was over -4.00 Molar, the Log10GI50 [5] was over -4.00 Molar and the Log10LC50 [5] was over -4.00 Molar. It also gave a Log10TGI [5] of over -4.00 Molar, a Log10GI50 [6] of over -4.00 Molar and a Log10LC50 [6] of over -4.00 Molar. It also gave a Log10TGI [6] of over -4.00 Molar, a Log10GI50 [7] of over -4.00 Molar and a Log10LC50 [7] of over -4.00 Molar. It also gave a Log10TGI [7] of over -4.00 Molar, a Log10GI50 [9] of over -4.00 Molar and a Log10LC50 [9] of over -4.00 Molar. It also gave a Log10TGI [9] of over -4.00 Molar, a Log10GI50 [10] of over -4.00 Molar and a Log10LC50 [10] of over -4.00 Molar. It also gave a Log10TGI [10] of over -4.00 Molar, a GI50 [11] of over 20 µM and a GI50 [12] of over 20 µM. The GI50 [13] was over 20 µM.

`COc1cc(C)c(-c2ccc(=O)c(OC)cc2C)c(OC)c1OC` (single isomer, unassigned) [(aS)-iso-6] was tested, and the Kd [1] was “nb”, the Log10GI50 [2] was -4.38 Molar and the Log10LC50 [2] was over -4.00 Molar. For the same molecule, the Log10TGI [2] was over -4.00 Molar, the GI50 [2] was 41.7 µM and the Log10GI50 ([2]; […]) was -4.38 Molar. For the same molecule, the Log10GI50 [5] was -4.44 Molar, the Log10LC50 [5] was over -4.00 Molar and the Log10TGI [5] was over -4.00 Molar. The GI50 [5] was 36.3 µM, the Log10GI50 ([5]; […]) was -4.44 Molar and the Log10GI50 [6] was -4.38 Molar. The Log10LC50 [6] was over -4.00 Molar, the Log10TGI [6] was over -4.00 Molar and the GI50 [6] was 41.7 µM. The Log10GI50 ([6]; […]) was -4.38 Molar, the Log10GI50 [7] was over -4.00 Molar and the Log10LC50 [7] was over -4.00 Molar. For the same molecule, the Log10TGI [7] was over -4.00 Molar, the Log10GI50 [9] was -4.06 Molar and the Log10LC50 [9] was over -4.00 Molar. The Log10TGI [9] was over -4.00 Molar, the GI50 [9] was 87.1 µM and the Log10GI50 ([9]; […]) was -4.06 Molar. It also gave a Log10GI50 [10] of -4.32 Molar, a Log10LC50 [10] of over -4.00 Molar and a Log10TGI [10] of over -4.00 Molar. For the same molecule, the GI50 [10] was 47.9 µM, the Log10GI50 ([10]; […]) was -4.32 Molar and the GI50 ([11]; Homo sapiens, A549, 72 h) was over 20 µM. The GI50 ([12]; Homo sapiens, PC-3, 72 h) was over 20 µM and the GI50 ([13]; Homo sapiens, M14, 72 h) was over 20 µM.

In the case of `COc1cc(C)c(-c2ccc(OC)c(=O)cc2C)c(OC)c1OC` (single isomer, unassigned) [(aR)-6], the “binding constant fold less potent than 3” value [1] is reported as 5–30 fold, the Kd ([1]; read-out: Kd) is reported as 95 µM and the Log10GI50 [2] is reported as -5.36 Molar. The Log10LC50 [2] was over -4.00 Molar, the Log10TGI [2] was over -4.00 Molar and the GI50 [2] was 4.37 µM. The Log10GI50 ([2]; listed as (aR)-DM-MTC) was -5.36 Molar, the Log10GI50 [3] was -5.26 Molar and the Log10LC50 [3] was over -4.00 Molar. It also gave a Log10TGI [3] of over -4.00 Molar, a GI50 ([3]; Homo sapiens) of 5.5 µM and a Log10GI50 ([3]; listed as (aR)-DM-MTC) of -5.26 Molar. The Log10GI50 [4] was -5.45 Molar, the Log10LC50 [4] was over -4.00 Molar and the Log10TGI [4] was over -4.00 Molar. For the same molecule, the GI50 ([4]; Homo sapiens) was 3.55 µM, the Log10GI50 ([4]; listed as (aR)-DM-MTC) was -5.45 Molar and the Log10GI50 [5] was -5.58 Molar. It also gave a Log10LC50 [5] of over -4.00 Molar, a Log10TGI [5] of over -4.00 Molar and a GI50 [5] of 2.63 µM. It also gave a Log10GI50 ([5]; listed as (aR)-DM-MTC) of -5.58 Molar, a Log10GI50 [6] of -5.39 Molar and a Log10LC50 [6] of over -4.00 Molar. It also gave a Log10TGI [6] of over -4.00 Molar, a GI50 [6] of 4.07 µM and a Log10GI50 ([6]; listed as (aR)-DM-MTC) of -5.39 Molar. The Log10LC50 [7] was over -4.00 Molar, the Log10TGI [7] was over -4.00 Molar and the GI50 ([8]; Homo sapiens, KM12 (printed KM29)) was 1.62 µM. For the same molecule, the Log10GI50 [8] was -5.79 Molar, the Log10LC50 [8] was over -4.00 Molar and the Log10TGI [8] was over -4.00 Molar. The Log10GI50 ([8]; listed as (aR)-DM-MTC) was -5.79 Molar, the Log10GI50 [9] was -5.41 Molar and the Log10LC50 [9] was over -4.00 Molar. For the same molecule, the Log10TGI [9] was over -4.00 Molar, the GI50 [9] was 3.89 µM and the Log10GI50 ([9]; listed as (aR)-DM-MTC) was -5.41 Molar. It also gave a Log10GI50 [10] of -5.37 Molar, a Log10LC50 [10] of over -4.00 Molar and a Log10TGI [10] of over -4.00 Molar. For the same molecule, the GI50 [10] was 4.27 µM, the Log10GI50 ([10]; listed as (aR)-DM-MTC) was -5.37 Molar and the GI50 [11] was 2.1 ± 0.1 µM. It also gave a GI50 [12] of 1.5 ± 0.1 µM and a GI50 [13] of 1.1 ± 0.2 µM.
